Test results taken from PMC12325182, “Discovery of novel and potent celastrol derivatives as PRDX1 inhibitors for cancer therapy through structure-based virtual screening” (Frontiers in Pharmacology, 2025).
Like-named read-outs stand apart in the source and are kept apart here.

What was measured:
[1] = system: MCF-7 (breast adenocarcinoma cells); experiment: MTT assay; type: cell-based; settings: Homo sapiens, MCF7, 72 h, read-out: IC50 (μM) MCF-7
Procedure: (§1) Cells were seeded in 96-well plates at 5 ×10^4 cells/well and cultured overnight at 37°C under 5% CO2. After medium removal, cells were treated with serially diluted compounds (0.04–163.84 μM) or vehicle control (0.1% DMSO) and incubated for 72 h. Subsequently, 20 μL of MTT solution (5 mg/mL) was added to each well, and incubation was continued for 4 h. Add 150 μL of DMSO and shake for 10 min to fully dissolve the crystal. Finally, the absorbance was measured at 570 nm using a microplate reader. Cell viability was calculated as (ODcompound - ODblank)/(ODvehicle - ODblank) × 100%. The half inhibitory concentration (IC50) was calculated from the dose-response curve using Prism 8.0 software. Three independent replicate experiments were performed.

A549 lung cancer cells = experiment: MTT assay; type: cell-based; settings: Homo sapiens, read-out: IC50 (μM) A549
Procedure: as §1

[2] = system: BEAS-2B normal lung cells; experiment: MTT assay; type: cell-based; settings: Homo sapiens, 72 h
Procedure: as §1

[3] = system: HaCaT (immortalised keratinocytes); experiment: MTT assay; type: cell-based; settings: Homo sapiens, 72 h, normal cells, mean ± SD, n = 3
Procedure: as §1

LO2 (normal liver cells) = experiment: MTT assay; type: cell-based; settings: Homo sapiens, 72 h, read-out: IC50 (μM) LO2
Procedure: as §1

[4] = system: HepG2 (hepatocellular carcinoma cells); experiment: MTT assay; type: cell-based; settings: Homo sapiens, HepG2, 72 h, read-out: IC50 (μM) HepG2
Procedure: as §1

[5] = system: HEK293 (embryonic kidney cells); experiment: MTT assay; type: cell-based; settings: Homo sapiens, HEK293, 72 h, read-out: IC50 (μM) HEK293
Procedure: as §1

PRDX1 [6] = target: T1, PRDX1 (Homo sapiens, UniProt Q06830); experiment: MST assay; type: binding
T1 sequence (Q06830 1-199): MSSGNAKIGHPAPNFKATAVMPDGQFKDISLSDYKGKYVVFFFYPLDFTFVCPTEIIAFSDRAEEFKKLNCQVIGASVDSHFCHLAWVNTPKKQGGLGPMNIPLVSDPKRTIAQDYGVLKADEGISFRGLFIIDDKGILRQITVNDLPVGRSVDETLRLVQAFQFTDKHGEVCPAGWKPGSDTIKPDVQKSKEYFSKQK
Procedure: The MST assays were carried out in a buffer composed of 50 mM Tris, 200 mM NaCl, and 0.1% (v/v) TWEEN20. PRDX1 was tagged with the MO-L011 protein labeling kit (RED-NHS second Generation). The diluted compounds were combined with the tagged PRDX1 protein and allowed to stand at room temperature for 5 minutes. Subsequently, the reaction mixture was loaded into capillaries, and measurements were taken using a Monolith NT.115 instrument.

PRDX1 [7] = target: T1, PRDX1; experiment: PRDX1 inhibition assay; type: biochemical
Procedure: The cells were purchased from the American Type Culture Collection (ATCC) (Manassas, VA, United States). Cells were cultured in RPMI-1640 medium supplemented with 10% FBS, 50 units/mL penicillin, and 50 μg/mL streptomycin, and maintained at 37°C in a 5% CO2 humidified culture environment. CPs 1-5 were purchased from WuXi AppTec. Human PRDX1 proteins were purchased from Abcam (Cambridge, MA, United States).
First, […] buffer (20 mM HEPES, 5 mM EDTA, 5 μM cofactor A, 2 μM cofactor B, and 300 μM NADPH) was added to a 96-well plate. The test compounds at the designated concentration (0.02–2 nM, with 1.5-fold dilution) were incubated with PRDX1 at 37°C for 25 min, and then the co-incubated mixture was added to each well to a final concentration of 200 nM PRDX1. Finally, 200 μM H2O2 was added to each well to initiate the enzyme reaction cycle. The oxidation of NADPH was determined by the absorption value at 340 nm. Read plate values for 90 s for one cycle and repeat for 20 cycles. The positive control (celastrol, concentrations 0.06–64 μM) was tested in parallel under identical experimental conditions. Three independent replicate experiments were performed.

[8] = A549, MTT, 72 h, mean ± SD, n = 3
[9] = MTT, normal lung cells, mean ± SD, n = 3, read-out: IC50 (μM) BEAS-2B
[10] = mean ± SD, n = 3, read-out: PRDX1 (IC50)

Row | Structure (SMILES) | IC50 (A549 lung cancer cells; [8]) | IC50 (PRDX1 [7]; [10]) | IC50 [1] | IC50 (A549 lung cancer cells; A549, 72 h) | IC50 ([2]; read-out: IC50 (μM) BEAS-2B) | IC50 [3] | IC50 (LO2 (normal liver cells)) | IC50 [4] | IC50 [5] | Kd (PRDX1 [6]) | IC50 (PRDX1 [7]) | IC50 [2, 9]
1 | CC1=C(O)C(=O)C=C2C1=CC=C1[C@@]2(C)CC[C@@]2(C)[C@@H]3C[C@](C)(C(=O)O)CC[C@]3(C)CC[C@]12C [Celastrol, celastrol] | – | – | 1.31 ± 0.06 µM | 1.24 ± 0.08 µM | 0.45 ± 0.03 µM | 17.4 ± 0.54 µM | 24 ± 0.69 µM | 1.28 ± 0.05 µM | 5.76 ± 0.12 µM | 320 ± 20 nM | 510 ± 40 nM | –
2 | CC1=C(CC(=O)/C=C/C2=CC(CO)=CC2)C(=O)C=C2C1=CC=C1[C@@]2(C)CC[C@@]2(C)C3C[C@](C)(C(=O)NCc4cccc(C(O)C(O)O)c4)CC[C@]3(C)CC[C@]12C (stereo partly drawn) [CP2] | 0.46 ± 0.03 µM | 0.17 ± 0.02 nM | – | – | – | – | – | – | – | – | – | > 100 µM
3 | Cc1ncc(CNC(=O)[C@]2(C)CC[C@]3(C)CC[C@]4(C)C5=CC=C6C=C(CC(=O)/C=C/c7cccc(CO)c7)C(=O)C=C6C5CC[C@@]4(C)C3C2)nc1C(C)C(O)O (stereo partly drawn) [CP3] | 0.57 ± 0.05 µM | 0.25 ± 0.01 nM | – | – | – | – | – | – | – | – | – | > 100 µM

Continued, in another order:

Row | IC50 (A549 lung cancer cells; [8]) | IC50 (PRDX1 [7]; [10]) | Structure (SMILES) | IC50 [1] | IC50 (A549 lung cancer cells; A549, 72 h) | IC50 ([2]; read-out: IC50 (μM) BEAS-2B) | IC50 [3] | IC50 (LO2 (normal liver cells)) | IC50 [4] | IC50 [5] | Kd (PRDX1 [6]) | IC50 (PRDX1 [7]) | IC50 [2, 9]
4 | 0.63 ± 0.04 µM | 0.31 ± 0.03 nM | C[C@@]1(C(=O)NCc2cccc(CC(O)O)c2)CC[C@]2(C)CC[C@]3(C)C4=CC=C5C=C(CC(=O)/C=C/c6cccc(CO)c6)C(=O)C=C5C4CC[C@@]3(C)C2C1 (stereo partly drawn) [CP4] | – | – | – | – | – | – | – | – | – | > 100 µM
5 | 0.68 ± 0.06 µM | 0.36 ± 0.02 nM | C=C(/C=C(C)\C=C\C(=O)CC1=CC2=CC=C3C(CC[C@@]4(C)C5C[C@](C)(C(=O)NCc6cccc(CC(O)O)c6)CC[C@]5(C)CC[C@]34C)C2=CC1=O)CO (stereo partly drawn) [CP5] | – | – | – | – | – | – | – | – | – | > 100 µM
